These results are taken from ChEMBL document CHEMBL1139562, “A switch in enantiomer preference between mitochondrial F1F0-ATPase chemotypes” (Bioorg Med Chem Lett, 2005).

Some results are limits rather than exact numbers.

For test [1], the target named is T1, Mitochondrial complex V; ATP synthase (Bos taurus) (UniProt P05632+P00829+P05631+P05630). As to the kind of experiment: Inhibitory activity against mitochondrial ATP hydrolase from bovine. The test is classed as protein-complex assay.
Test [2] deals with T1, Mitochondrial complex V; ATP synthase (Bos taurus). As to the kind of experiment: Inhibitory activity against mitochondrial ATP synthase from bovine. The test is classed as protein-complex assay.
The target is the same in test [3]. Kind of test: Inhibitory activity against mitochondrial ATP synthase from bovine.

Consider `N#Cc1cccc(C(=O)N/C(=N\[C@H](Cn2ccnc2)c2ccc(Cl)cc2Cl)Nc2ccc(Cl)cc2)c1`, for which the Inhibition was greater than 100 µM in test [1] and 18 nM in test [2].
On the same counts, the results for `S=C(Nc1ccc(Cl)cc1)O[C@@H](Cn1ccnc1)c1ccc(Cl)cc1Cl` are greater than 100 µM and 140 nM.
On the same counts, the results for `S=C(Nc1ccc(Cl)cc1)O[C@H](Cn1ccnc1)c1ccc(Cl)cc1Cl` are greater than 100 µM and 3600 nM.
On the same counts, the results for `S=C(Nc1ccc(Cl)cc1Cl)O[C@H](Cn1ccnc1)c1ccc(Cl)cc1Cl` are greater than 100 µM and 2200 nM.
For `N#Cc1cccc(C(=O)N/C(=N\[C@@H](Cn2ccnc2)c2ccc(Cl)cc2Cl)Nc2ccc(Cl)cc2)c1`, the Inhibition in test [3] is greater than 100 µM; in test [2], greater than 100000 nM.
As to `S=C(Nc1ccc(Cl)cc1Cl)O[C@@H](Cn1ccnc1)c1ccc(Cl)cc1Cl`, the Inhibition in test [1] was greater than 100 µM; in test [2], 19 nM.
